In ChEMBL document CHEMBL1158153, “Novel H3 receptor antagonists with improved pharmacokinetic profiles” (Bioorg Med Chem Lett, 2008):

Key:
[1] = molecular target: Histamine H3 receptor (Rattus norvegicus, UniProt Q9QYN8); test: Displacement of N-[3H]methylhistamine from histamine H3 receptor in rat cortex membrane; assay type: cell membranes
[2] = Tmax in rat at 10 mg/kg, po; assay type: ADME, organism-based; design: dose 10 mg/kg, route oral; settings: in vivo
[3] = Half life in rat at 10 mg/kg, po; assay type: ADME, organism-based; design: dose 10 mg/kg, route oral; settings: in vivo
[4] = Bioavailability in rat at 10 mg/kg, po; assay type: ADME, organism-based; settings: in vivo
[5] = molecular target: T1, Histamine H3 receptor (Homo sapiens, UniProt Q9Y5N1); test: Antagonist activity at human histamine H3 receptor expressed in CHOK1 cells by [3H]R(-)-alpha-methylhistamine displacement assay; assay type: cell-based, CHO-K1
[6] = molecular target: T1, Histamine H3 receptor; test: Inverse agonist activity at human H3 receptor expressed in CHOK1 cells by GTPgammaS binding assay; assay type: functional, cell-based, CHO-K1
[7] = organism: Rattus norvegicus; test: Inhibition of R(-)-alpha-methylhistamine-induced drinking response in rat dipsogenia model after 0.5 hrs; assay type: functional, organism-based

Chain of Histamine H3 receptor (Rattus norvegicus, UniProt Q9QYN8) (Q9QYN8 whole entry): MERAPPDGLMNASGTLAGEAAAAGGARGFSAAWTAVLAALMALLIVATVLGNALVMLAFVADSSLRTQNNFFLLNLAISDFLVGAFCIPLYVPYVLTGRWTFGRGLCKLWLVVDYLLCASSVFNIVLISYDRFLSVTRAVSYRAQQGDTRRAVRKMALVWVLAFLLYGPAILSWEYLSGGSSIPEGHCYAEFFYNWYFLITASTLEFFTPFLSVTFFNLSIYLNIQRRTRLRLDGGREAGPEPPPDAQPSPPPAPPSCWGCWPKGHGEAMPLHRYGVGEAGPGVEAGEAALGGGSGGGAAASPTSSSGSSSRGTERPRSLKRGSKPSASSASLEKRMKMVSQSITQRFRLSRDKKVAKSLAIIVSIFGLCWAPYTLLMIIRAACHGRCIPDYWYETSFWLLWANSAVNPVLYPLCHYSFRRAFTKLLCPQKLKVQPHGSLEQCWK
T1 sequence (Q9Y5N1 whole entry): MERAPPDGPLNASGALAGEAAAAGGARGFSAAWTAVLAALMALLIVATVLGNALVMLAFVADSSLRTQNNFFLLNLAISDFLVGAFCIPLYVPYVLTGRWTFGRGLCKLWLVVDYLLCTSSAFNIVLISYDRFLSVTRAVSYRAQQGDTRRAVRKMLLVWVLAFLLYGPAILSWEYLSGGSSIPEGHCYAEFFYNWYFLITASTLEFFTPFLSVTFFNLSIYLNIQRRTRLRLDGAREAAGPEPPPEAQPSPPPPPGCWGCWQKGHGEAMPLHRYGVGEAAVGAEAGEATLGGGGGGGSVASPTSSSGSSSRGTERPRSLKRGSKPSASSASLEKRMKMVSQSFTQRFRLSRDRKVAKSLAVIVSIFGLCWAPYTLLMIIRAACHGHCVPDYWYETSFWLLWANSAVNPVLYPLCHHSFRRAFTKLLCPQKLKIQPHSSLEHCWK

SMILES	Ki [1] [nM]	further results
CC(C)S(=O)(=O)N1C[C@@H]2CC=C(c3ccc(CCN4CCCC4)cc3)[C@@H]2C1	12	Tmax [2]: 0.2 h; half-life [3]: 5 h; bioavailability [4]: 3%
C[C@@H]1CCCN1CCc1ccc(C2=CC[C@H]3CN(C(=O)Cc4ccccc4)C[C@@H]23)cc1	0.3	–
C[C@@H]1CCCN1CCc1ccc(C2=CC[C@H]3CN(C(=O)c4ccccc4)C[C@@H]23)cc1	3	–
O=C(c1cccnc1)N1C[C@@H]2CC=C(c3ccc(CCN4CCCC4)cc3)[C@@H]2C1	6	–
C[C@@H]1CCCN1CCc1ccc(C2=CC[C@H]3CN(C(=O)C4CCOCC4)C[C@@H]23)cc1	0.7	Ki [5]: 2 nM; Ki [6]: 4 nM; Tmax [2]: 0.3 h; half-life [3]: 2.5 h; bioavailability [4]: 66%; Activity [7]: Dose-dependent effect
O=C(N1CCOCC1)N1C[C@@H]2CC=C(c3ccc(CCN4CCCC4)cc3)[C@@H]2C1	12	–
C[C@@H]1CCCN1CCc1ccc(C2=CC[C@H]3CN(C(=O)C4CCCC4)C[C@@H]23)cc1	0.4	–
O=S(=O)(Cc1ccccc1)N1C[C@@H]2CC=C(c3ccc(CCN4CCCC4)cc3)[C@@H]2C1	12	–
C1=C(c2ccc(CCN3CCCC3)cc2)[C@@H]2CN(CC3CC3)C[C@@H]2C1	–	Ki [5]: 0.9 nM; Ki [6]: 1 nM; Tmax [2]: 6 h; half-life [3]: 6 h
O=C(c1ccccc1)N1C[C@@H]2CC=C(c3ccc(CCN4CCCC4)cc3)[C@@H]2C1	21	–
C[C@@H]1CCCN1CCc1ccc(C2=CC[C@H]3CN(C(=O)c4cccnc4)C[C@@H]23)cc1	1	–
CC(C)C(=O)N1C[C@@H]2CC=C(c3ccc(CCN4CCC[C@H]4C)cc3)[C@@H]2C1	0.4	–
O=S(=O)(c1ccccc1)N1C[C@@H]2CC=C(c3ccc(CCN4CCCC4)cc3)[C@@H]2C1	17	–

Now from value to molecule, other results behind:

Ki [1] [nM]	SMILES	further results
3	O=C(C1CCCC1)N1C[C@@H]2CC=C(c3ccc(CCN4CCCC4)cc3)[C@@H]2C1	–
5	CC(C)C(=O)N1C[C@@H]2CC=C(c3ccc(CCN4CCCC4)cc3)[C@@H]2C1	–
13	CN(C)C(=O)N1C[C@@H]2CC=C(c3ccc(CCN4CCCC4)cc3)[C@@H]2C1	–
27	CS(=O)(=O)N1C[C@@H]2CC=C(c3ccc(CCN4CCCC4)cc3)[C@@H]2C1	–
16	O=C(NC1CCCC1)N1C[C@@H]2CC=C(c3ccc(CCN4CCCC4)cc3)[C@@H]2C1	–
6	O=C(CO)N1C[C@@H]2CC=C(c3ccc(CCN4CCCC4)cc3)[C@@H]2C1	Tmax [2]: 0.6 h; half-life [3]: 1.8 h; bioavailability [4]: 39%
7	O=C(Cc1ccccc1)N1C[C@@H]2CC=C(c3ccc(CCN4CCCC4)cc3)[C@@H]2C1	–
20	CC(C)NC(=O)N1C[C@@H]2CC=C(c3ccc(CCN4CCCC4)cc3)[C@@H]2C1	Tmax [2]: 0.3 h; half-life [3]: 7.3 h; bioavailability [4]: 22%
4	O=C(C1CCOC1)N1C[C@@H]2CC=C(c3ccc(CCN4CCCC4)cc3)[C@@H]2C1 (stereo not given in full)	–
